Measured values published in paper PMC5686453 (ACS chemical neuroscience, 2017).
Entries after “also recorded” stand apart in the source; their conditions may differ.

Experiments:
α1β3γ2L GABAA receptor = α1β3γ2L GABAA receptor (Rattus norvegicus, UniProt P18508+P62813, INS375LLRMFSFK); assay type: cell-based; conditions: for peak response (potentiation of the response to GABA): α1β3γ2L, percentage of the response to GABA alone
α2β3γ2L GABAA receptor = α2β3γ2L GABAA receptor (UniProt P18508+P47869, INS375LLRMFSFK); assay type: cell-based, human; conditions: for peak response (potentiation of the response to GABA): α2β3γ2L, percentage of the response to GABA alone
α3β3γ2L GABAA receptor = α3β3γ2L GABAA receptor (Rattus norvegicus, UniProt P18508+P20236, INS375LLRMFSFK); assay type: cell-based; conditions: for peak response (potentiation of the response to GABA): α3β3γ2L, percentage of the response to GABA alone
[1] = molecular target: α4-containing GABAA receptors (with β3, γ2L) (Rattus norvegicus, UniProt P18508+P28471, INS375LLRMFSFK); assay type: cell-based; conditions: 1 μM modulator, 0.3 μM GABA
[2] = molecular target: α5-containing GABAA receptors (with β3, γ2L) (Rattus norvegicus, UniProt P18508+P19969, INS375LLRMFSFK); assay type: cell-based; conditions: 0.1 μM modulator, 0.3 μM GABA
[3] = molecular target: α6-containing GABAA receptors (with β3, γ2L) (Rattus norvegicus, UniProt P18508+P30191, INS375LLRMFSFK); assay type: cell-based; conditions: 1 μM modulator, 0.1 μM GABA
[4] = system: 0.6% acetic acid-induced writhing in mice; assay: 0.6% acetic acid-induced writhing; assay type: in vivo, ICR mice; conditions: s.c. pretreatment, 25 min observation
[5] = system: 0.32% lactic acid-induced writhing in mice; assay type: in vivo, ICR mice; conditions: s.c. pretreatment, 25 min observation
[6] = system: acetic acid-depressed nesting in mice; assay: Acetic acid-depressed nesting; assay type: in vivo, ICR mice; conditions: 60 min nesting period
[7] = system: acetic acid-depressed locomotion in mice; assay: Acetic acid-depressed locomotor activity; assay type: in vivo, ICR mice; conditions: s.c. pretreatment, 0.6% acetic acid
[8] = system: lactic acid-depressed locomotion in mice; assay: Lactic acid-depressed locomotor activity; design: species or system ICR mice; conditions: mouse, in vivo
mice = assay: Pilot study of a larger dose; assay type: in vivo; conditions: 32 mg/kg
[9] = system: spontaneous locomotor activity in naïve mice; assay: Baseline locomotor activity without acid; assay type: in vivo, ICR mice; conditions: doses used for the pain studies
formalin test = conditions: only partially effective; cited from earlier work
[10] = system: rat models of inflammatory and neuropathic pain; conditions: cited from earlier work

| SMILES | EC50 (α1β3γ2L GABAA receptor) | peak response (potentiation of the response to GABA) (α1β3γ2L GABAA receptor) | EC50 (α2β3γ2L GABAA receptor) | peak response (potentiation of the response to GABA) (α2β3γ2L GABAA receptor) | EC50 (α3β3γ2L GABAA receptor) | peak response (potentiation of the response to GABA) (α3β3γ2L GABAA receptor) | modulation of GABA response at α5-containing receptors (in words) [2] | effect on 0.6% acetic acid-induced writhing (in words) [4] | effect on […] lactic acid-induced writhing (in words) [5] | effect on the decrease in cleared zones by acetic acid (nesting, in words) [6] | effect on locomotor activity of acetic acid-treated mice (in words) [7] | effect on locomotor activity of lactic acid-treated mice (in words) [8] | sedation at a larger dose (mice) | further results |
| --- | --- | --- | --- | --- | --- | --- | --- | --- | --- | --- | --- | --- | --- | --- |
| C#Cc1ccc2c(c1)C(c1ccccn1)=NCc1c(-c3cnco3)ncn1-2 [KRM-II-81, 5-(8-ethynyl-6-(pyridin-2-yl)-4H-benzo[f]imidazo[1,5-a][1,4]diazepin-3-yl) oxazole] | 1730 ± 690 nM | 316.9 ± 38.6% | 102 ± 28.5 nM | 350.1 ± 21.5% | 60.9 ± 11.6 nM | 352.2 ± 38.0% | much less sensitive; also recorded: negligible efficacy | dose-dependently decreased | decreased | failed to significantly attenuate | failed to restore | failed to restore | marked sedation | selectivity on α2 subtype over α1 subtype GABAA receptors (α2β3γ2L GABAA receptor; from EC50 values): 17 fold; selectivity on α3 subtype over α1 subtype GABAA receptors (α3β3γ2L GABAA receptor; from EC50 values): 28 fold; modulation of GABA response at α4-containing receptors (in words) [1]: negligible efficacy; modulation of GABA response at α6-containing receptors (in words) [3]: negligible efficacy |
| CC(=O)Nc1ccc(O)cc1 [acetaminophen, reference compound] | – | – | – | – | – | – | – | – | – | – | dose-dependently increased | dose-dependently increased | – | effect on locomotor / spontaneous activity without acid [9]: did not significantly change |
| C#Cc1ccc2c(c1)C(c1ccccc1F)=NCc1c(-c3cnco3)ncn1-2 [KRM-II-18B, 5-(8-ethynyl-6-(2-fluorophenyl)-4H-benzo[f]imidazo[1,5-a][1,4]diazepin-3-yl) oxazole] | 739 ± 252 nM | 410.6 ± 26.3% | 261 ± 116 nM | 320.0 ± 14.3% | 169 ± 39.8 nM | 383.0 ± 33.2% | significant efficacy | dose-dependently decreased | decreased | failed to significantly attenuate | failed to restore | failed to restore | marked sedation | selectivity among the three subtypes (α1, α2, α3) (α1β3γ2L GABAA receptor; in words): no significant selectivity |
| CC(C)(O)c1ccc2c(c1)ncn2-c1cccc(-c2ccccc2C#N)c1 [NS11394, 3′-[5-(1-hydroxy-1-methyl-ethyl)-benzoimidazol-1-yl]-biphenyl-2-carbonitrile] | – | – | – | – | – | – | – | – | – | – | – | – | – | reduction in the formalin test (formalin test): 33%; antinociceptive effects in rat models of inflammatory and neuropathic pain [10]: significant antinociceptive effects; sedation at the antinociceptive doses ([10]; rat, same doses): does not produce sedation |
